Laboratory results taken from article PMC3169562, “The Hedgehog Receptor Patched Is Involved in Cholesterol Transport” (PLoS ONE, 2011).

Columns and labels:
human Patched (hPtc) [1] = target: T1, human Patched (hPtc) (Homo sapiens, UniProt Q13635); assay: fluorescent sterol efflux from yeast over-expressing hPtc versus Myodulin or hSmo controls; format: cell-based; set-up: gene PTCH1; hPtc-MAP over-expressed in S. cerevisiae
T1 sequence (Q13635 1-1447): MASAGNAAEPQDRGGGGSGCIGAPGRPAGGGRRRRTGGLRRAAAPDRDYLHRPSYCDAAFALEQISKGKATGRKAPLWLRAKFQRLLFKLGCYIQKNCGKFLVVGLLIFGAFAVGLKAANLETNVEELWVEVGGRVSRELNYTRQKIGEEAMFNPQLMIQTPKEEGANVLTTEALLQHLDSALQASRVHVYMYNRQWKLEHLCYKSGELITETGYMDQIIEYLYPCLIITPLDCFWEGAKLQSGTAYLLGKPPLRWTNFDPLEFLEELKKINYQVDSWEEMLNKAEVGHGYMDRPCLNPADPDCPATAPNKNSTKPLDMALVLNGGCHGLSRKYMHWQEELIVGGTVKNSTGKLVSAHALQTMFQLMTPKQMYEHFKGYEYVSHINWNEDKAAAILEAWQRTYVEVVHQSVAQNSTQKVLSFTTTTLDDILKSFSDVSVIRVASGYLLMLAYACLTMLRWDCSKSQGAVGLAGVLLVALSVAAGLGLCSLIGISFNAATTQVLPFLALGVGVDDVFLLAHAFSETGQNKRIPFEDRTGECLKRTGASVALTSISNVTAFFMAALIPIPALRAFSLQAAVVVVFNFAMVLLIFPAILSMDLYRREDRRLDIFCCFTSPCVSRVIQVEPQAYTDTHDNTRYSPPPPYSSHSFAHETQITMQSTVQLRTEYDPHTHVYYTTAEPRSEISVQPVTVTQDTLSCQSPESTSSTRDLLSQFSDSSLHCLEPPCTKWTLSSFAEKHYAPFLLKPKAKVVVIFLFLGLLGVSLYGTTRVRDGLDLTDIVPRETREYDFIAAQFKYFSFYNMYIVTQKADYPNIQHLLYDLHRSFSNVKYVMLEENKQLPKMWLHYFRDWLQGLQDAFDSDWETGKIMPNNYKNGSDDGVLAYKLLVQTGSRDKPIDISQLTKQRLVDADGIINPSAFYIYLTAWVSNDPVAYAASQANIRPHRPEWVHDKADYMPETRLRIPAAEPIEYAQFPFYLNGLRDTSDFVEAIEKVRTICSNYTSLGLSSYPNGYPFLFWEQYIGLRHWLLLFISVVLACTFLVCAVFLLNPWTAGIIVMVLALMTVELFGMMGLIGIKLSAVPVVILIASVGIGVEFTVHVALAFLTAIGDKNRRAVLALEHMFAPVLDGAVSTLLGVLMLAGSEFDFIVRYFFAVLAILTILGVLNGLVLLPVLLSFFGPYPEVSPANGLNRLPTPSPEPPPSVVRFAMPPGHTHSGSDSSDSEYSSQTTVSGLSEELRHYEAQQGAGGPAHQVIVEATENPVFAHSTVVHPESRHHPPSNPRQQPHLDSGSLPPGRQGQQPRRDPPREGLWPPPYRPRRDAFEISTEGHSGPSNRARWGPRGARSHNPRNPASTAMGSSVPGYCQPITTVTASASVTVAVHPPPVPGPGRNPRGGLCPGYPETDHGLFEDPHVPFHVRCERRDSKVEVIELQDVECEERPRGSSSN

human Patched (hPtc) [2] = target: T1, human Patched (hPtc); assay: SPR (Biacore): purified hPtc injected over thiocholesterol covalently coupled to a CM5 chip; Myodulin as negative control; format: binding; set-up: gene PTCH1

CC1=CC(C)=[N+]2C1=C(CC[C@@H](C)[C@H]1CC[C@H]3[C@@H]4CC=C5C[C@@H](O)CC[C@]5(C)[C@H]4CC[C@]13C)c1c(C)cc(C)n1[B-]2(F)F [BODIPY-cholesterol]
% increase of efflux (human Patched (hPtc) [1]): ~ 88 % increase of efflux

CC(C)CCC[C@@H](C)[C@H]1CC[C@H]2[C@@H]3CC=C4C[C@@H](O)CC[C@]4(C)[C@H]3CC[C@]12C [cholesterol]
SPR (Biacore): purified hPtc injected over thiocholesterol covalently coupled to (human Patched (hPtc) [2]): showed a clear binding of hPtc to cholesterol coupled on the fc in comparison with Myo
